# Like-named read-outs stand apart in the source and are kept apart here.
# Key:
# [1] = test system: THP1 cells; experiment: IFN-β secretion in THP1 cell culture (5 h); format: cell-based, human; conditions: 30 uM cGAMP = 100%; for activation at 30 µM: Homo sapiens, THP-1, 5 h
# Method: The ability of compounds to stimulate the secretion of interferon-beta from THP1 cells was measured using a human IFN-β AlphaLISA kit (Perkin Elmer, Cat. No. AL265F). The basic protocol is as follows:
# A Labcyte Echo 550 acoustic dispenser was used to transfer 120 nL of compound dissolved in DMSO into the wells of an empty, sterile 384-well microplate, (Corning, Cat. No. 3712). THP1 cells (American Type Culture Collection, Cat. No. TIB202) previously frozen in Recovery Medium (Life Technologies, Cat. No. 12648-010) were thawed and immediately diluted 10-fold into 37° C. assay medium (RPMI 1640+L-Glutamine & phenol red, Life Technologies, Cat. No. 11875-085; 0.5% heat inactivated fetal bovine serum, Sigma Aldrich, Cat. No. F4135; 1 mM Sodium Pyruvate, Life Technologies, Cat. No. 11360-070; lx non essential amino acids; Life Technologies, Cat. No. 11140-050). The cell viability and count was ascertained using a Beckman Coulter V-Cell XR cell counter. The cell suspension was centrifuged at 200×g for 5 min at RT. Cells were resuspended to a density of 0.8×10^6/mL in 37° C. assay medium. Subsequent liquid transfers were performed using either a Matrix electronic multichannel pipette or an Agilent Bravo Automated Liquid Handling Platform.
# The assay was started by dispensing 40 μL of the previously prepared cell suspension into the wells of the plate containing compounds. After 5 h incubation at 37° C., 5% CO2 in a humidified atmosphere, the plate of cells and compounds was centrifuged at 200×g for 5 min at RT. From each well, […] of supernatant was transferred into corresponding wells of a white 384-well plate (Perkin Elmer, Cat. No. 6005620). To these supernatant-containing wells was added 10 μL of 5× Anti-Analyte Acceptor beads (50 μg/mL of AlphaLISA HiBlock Buffer) and incubated for 30 min at RT while shaking on an orbital plate shaker. To each well was added 10 μL of 5× Biotinylated Antibody Anti-analyte (5 nM in AlphaLISA HiBlock Buffer) and incubated on an orbital plate shaker for 60 min at RT or overnight at 4° C. To each well was added 25 μL of 2× SA-Donor beads ([…] in AlphaLISA HiBlock Buffer) and incubated for 30-45 min at RT in the dark while shaking on an orbital plate shaker. The plate was then read on a Perkin Elmer Envision (λex=680 nm, λem=[…]). The percent effect of the AlphaLISA signal at each compound concentration was calculated based on 30 uM cGAMP positive controls and 0.3% DMSO negative controls. The plot of percent effect versus the log of compound concentration was fit with a 4-parameter concentration response equation to calculate EC50 values. The test compounds were tested at concentrations 30000, 10000, 3333, 1111, 370.4, 123.4, 41.2, 13.7, 4.6, and 1.5 nM with 0.3% residual DMSO. The control compound, cGAMP was tested at concentrations 100000, 33333, 11111, 3704, 1235, 412, 137, 46, and 15 nM with 0.3% residual DMSO.
# Compounds of the disclosure were evaluated for IFN-β secretion in THP1 cell culture as described above. The following table tabulates the biological data for these compounds as percent activation relative to 2′3′-cGAMP at the 30 μM concentration.
# [2] = molecular target: T1, full-length HAQ STING (Homo sapiens, UniProt Q86WV6, G230A/H232R/R293Q/R71H); experiment: 3H-cGAMP filtration binding assay (HAQ STING); conditions: 3H-cGAMP filtration binding assay for HAQ STING; competition with tritiated cGAMP
# T1 construct: Full-Length HAQ STING [STING(1-379)R71H, G230A, H232R,; made in house; host or cells: Trichoplusia ni insect cells (baculovirus made in Sf21); membrane preparation
# T1 sequence (Q86WV6 with tags, fused parts or gaps R71H/G230A/H232R/R293Q): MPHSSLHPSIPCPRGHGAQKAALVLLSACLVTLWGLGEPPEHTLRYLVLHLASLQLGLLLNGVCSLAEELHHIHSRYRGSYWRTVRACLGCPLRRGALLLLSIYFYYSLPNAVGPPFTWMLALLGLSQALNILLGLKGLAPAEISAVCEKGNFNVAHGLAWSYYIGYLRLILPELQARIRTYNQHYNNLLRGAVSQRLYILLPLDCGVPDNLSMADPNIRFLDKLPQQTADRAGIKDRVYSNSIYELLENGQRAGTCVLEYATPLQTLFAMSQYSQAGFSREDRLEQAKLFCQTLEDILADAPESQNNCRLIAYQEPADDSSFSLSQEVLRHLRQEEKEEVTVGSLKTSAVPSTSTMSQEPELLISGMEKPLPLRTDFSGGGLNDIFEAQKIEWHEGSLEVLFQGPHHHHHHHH
# Excerpt: The ability of compounds to bind STING is quantified by their ability to compete with tritiated cGAMP ligand for human STING receptor membrane using a radioactive filter-binding assay. The binding assay employs STING receptor obtained from Trichoplusia ni cell membranes (T.ni; Expression Systems, cat #94-002F, www.expressionsystems.com) overexpressing full-length HAQ STING and tritiated cGAMP ligand.
# The basic HAQ STING filtration assay protocol is as follows:
# Compound and membrane then preincubated for 60 min at RT to allow compound binding to equilibrate. Following equilibration, 8 nM of [^3H]c-GAMP ligand was prepared by diluting into assay buffer, and 50 uL of this working stock was then manually added to each well of the assay plate. […] The filter plates were then dried at 55° C. for 30 min using a pressurized oven before 30 uL of ULTIMA GOLD F scintillate was added to each well. Tritium levels for each reaction well were then measured using a PerkinElmer TopCount plate reader.
# After normalization to controls, the percent activity for each compound concentration was calculated by measuring the amount of remaining radioactivity. The plot of percent activity versus the log of compound concentration was fit with a 4-parameter dose response equation to calculate EC50 values.
# [3] = IFN-β secretion, THP1 cells, 5 h, 30 μM
# [4] = IFN-β secretion, THP1 cells, 5 h, 30 μM, read-out: % Effect at 30 μM relative to 2′3′-cGAMP
EC50 [2] [nM],Structure (SMILES),"% Effect at 30 μM relative to 2′3′-cGAMP [1, 3] [%]","activation at 30 µM [1, 4] [%]","activation at 30 µM ([1]; read-out: % Effect at 30 μM relative to 2′3′-cGAMP, IFN-β secretion, THP1 cells, 5 h, 30 μM) [%]"
5.62,"Nc1nc2c(nnn2[C@@H]2O[C@@H]3COP(=O)(S)O[C@H]4C[C@H](n5ccc6c(N)ncnc65)O[C@@H]4COP(=O)(S)O[C@H]2[C@@H]3F)c(=O)[nH]1 (single isomer, unassigned) [Example 26]",79,,
26,"Nc1nc2c(ncn2[C@@H]2O[C@@H]3COP(=O)(S)O[C@H]4[C@H](F)[C@H](n5nnc6c(N)ncnc65)O[C@@H]4COP(=O)(S)O[C@H]2C3)c(=O)[nH]1 (single isomer, unassigned) [Example 8]",145,,
,"Nc1nc2c(nnn2[C@@H]2O[C@@H]3COP(=O)(S)O[C@H]4C[C@H](n5ccc6c(N)ncnc65)O[C@@H]4COP(=O)(S)O[C@H]2C3)c(=O)[nH]1 (single isomer, unassigned) [Example 22]",,69,
241,"Nc1nc2c(ncn2[C@@H]2O[C@@H]3COP(=O)(S)O[C@H]4[C@H](F)[C@H](n5nnc6c(N)ncnc65)O[C@@H]4COP(=O)(S)O[C@H]2C3)c(=O)[nH]1 (single isomer, unassigned) [Example 6]",60,,
,"Nc1nc2c(ncn2[C@@H]2O[C@@H]3COP(=O)(S)O[C@H]4[C@H](F)[C@H](n5cnc6c(N)ncnc65)O[C@@H]4COP(=O)(S)O[C@H]2[C@@H]3F)c(=O)[nH]1 (single isomer, unassigned) [Example 15]",31,,
,"Nc1nc2c(ncn2[C@@H]2O[C@@H]3COP(=O)(S)O[C@H]4[C@H](F)[C@H](n5cnc6c(N)ncnc65)O[C@@H]4COP(=O)(S)O[C@H]2[C@@H]3F)c(=O)[nH]1 (single isomer, unassigned) [Example 17]",141,,
51.3,"Nc1nc2c(ncn2[C@@H]2O[C@@H]3COP(=O)(S)O[C@H]4[C@H](F)[C@H](n5nnc6c(N)ncnc65)O[C@@H]4COP(=O)(S)O[C@H]2[C@@H]3O)c(=O)[nH]1 (single isomer, unassigned) [Example 3]",128,,
,"Nc1nc2c(ncn2[C@@H]2O[C@@H]3COP(=O)(O)O[C@H]4[C@H](F)[C@H](n5cnc6c(N)ncnc65)O[C@@H]4COP(=O)(S)O[C@H]2[C@@H]3F)c(=O)[nH]1 (single isomer, unassigned) [Example 13]",79,,
,"Nc1nc2c(ncn2[C@@H]2O[C@@H]3COP(=O)(S)O[C@H]4[C@H](F)[C@H](n5cnc6c(N)ncnc65)O[C@@H]4COP(=O)(S)O[C@H]2[C@@H]3F)c(=O)[nH]1 (single isomer, unassigned) [Example 16]",188,,
,"Nc1nc2c(ncn2[C@@H]2O[C@@H]3COP(=O)(S)O[C@H]4[C@H]5OC[C@]4(COP(=O)(S)O[C@H]2[C@@H]3O)O[C@H]5n2cnc3c(N)ncnc32)c(=O)[nH]1 (single isomer, unassigned) [Example 5]",,113,
1140,"Nc1nc2c(ncn2[C@@H]2O[C@@H]3COP(=O)(S)O[C@H]4[C@H](F)[C@H](n5nnc6c(N)ncnc65)O[C@@H]4COP(=O)(S)O[C@H]2[C@@H]3O)c(=O)[nH]1 (single isomer, unassigned) [Example 1]",24,,
1130,"Nc1nc2c(ncn2[C@@H]2O[C@@H]3COP(=O)(S)O[C@H]4[C@H](F)[C@H](n5nnc6c(N)ncnc65)O[C@@H]4COP(=O)(S)O[C@H]2[C@@H]3O)c(=O)[nH]1 (single isomer, unassigned) [Example 2]",29,,
99.9,"Nc1nc2c(nnn2[C@@H]2O[C@@H]3COP(=O)(S)O[C@H]4C[C@H](n5ccc6c(N)ncnc65)O[C@@H]4COP(=O)(S)O[C@H]2[C@@H]3F)c(=O)[nH]1 (single isomer, unassigned) [Example 25]",,92,
,"Nc1nc2c(ncn2[C@@H]2O[C@@H]3COP(=O)(S)O[C@H]4[C@H]5OC[C@]4(COP(=O)(S)O[C@H]2[C@@H]3O)O[C@H]5n2cnc3c(N)ncnc32)c(=O)[nH]1 (single isomer, unassigned) [Example 4]",113,,
,"Nc1nc2c(ncn2[C@@H]2O[C@@H]3COP(=O)(O)O[C@H]4[C@H](F)[C@H](n5cnc6c(N)ncnc65)O[C@@H]4COP(=O)(S)O[C@H]2[C@@H]3F)c(=O)[nH]1 (single isomer, unassigned) [Example 14]",257,,
,"Nc1nc2c(nnn2[C@@H]2O[C@@H]3COP(=O)(S)O[C@H]4[C@H](F)[C@H](n5nnc6c(N)ncnc65)O[C@@H]4COP(=O)(S)O[C@H]2[C@@H]3F)c(=O)[nH]1 (stereo partly drawn) [Example 24, 5-amino-3-[(5R,7R,8R,12aR,14R,15S,15aR,16R)-14-(7-amino-3H-[1,2,3]triazolo[4,5-d]pyrimidin-3-yl)-15,16-difluoro-2,10-dioxido-2,10-disulfanyloctahydro-12H-5,8-methanofuro[3,2-1][1,3,6,9,11,2,10]pentaoxadiphosphacyclotetradecin-7-yl]-3,6-dihydro-7H-[1,2,3]triazolo[4,5-d]pyrimidin-7-one]",,,129
3670,"Nc1nc2c(ncn2[C@@H]2O[C@@H]3COP(=O)(S)O[C@H]4[C@H](F)[C@H](n5nnc6c(N)ncnc65)O[C@@H]4COP(=O)(S)O[C@H]2C3)c(=O)[nH]1 (single isomer, unassigned) [Example 7]",15,,

# Reference: US20220033431A1, “Cyclic Di-Nucleotide Compounds as STING Agonists” (Merck Sharp & Dohme Corp., priority 2018, published 2022)
